Patent publication US12404262B2 (priority 2021, dated 2025)

Conditions: 1.0% DMSO, 24-hour incubation at ambient temperature, maximum theoretical 100 μM; for pH 2 solubility: 0.1N HCl, first value of the cell; for pH 7 solubility: 1×PBS buffer (pH 7.4), second value of the cell

Row | pH 2 solubility | pH 7 solubility | SMILES
1 | 1 μM | 58 μM | CC(C)(C#Cc1ccc(-c2ccc(Cl)c3c(N(C(=O)N[C@H](CC(=O)O)C(=O)O)S(C)(=O)=O)nn(CC(F)(F)F)c23)c([C@H](Cc2cc(F)cc(F)c2)NC(=O)Cn2nc(C(F)(F)F)c3c2C(F)(F)[C@@H]2C[C@H]32)n1)S(C)(=O)=O [Compound 70, ((4-chloro-7-(2-((S)-1-(2-((3bS,4aR)-5,5-difluoro-3-(trifluoromethyl)-3b,4,4a,5-tetrahydro-1H-cyclopropa[3,4]cyclopenta[1,2-c]pyrazol-1-yl)acetamido)-2-(3,5-difluorophenyl)ethyl)-6-(3-methyl-3-(methylsulfonyl)but-1-yn-1-yl)pyridin-3-yl)-1-(2,2,2-trifluoroethyl)-1H-indazol-3-yl)(methylsulfonyl)carbamoyl)-D-aspartic acid]
2 | 1 μM | 15 μM | CN(C(=O)N(c1nn(CC(F)(F)F)c2c(-c3ccc(C#CC(C)(C)S(C)(=O)=O)nc3[C@H](Cc3cc(F)cc(F)c3)NC(=O)Cn3nc(C(F)(F)F)c4c3C(F)(F)[C@@H]3C[C@H]43)ccc(Cl)c12)S(C)(=O)=O)[C@@H](CC(=O)O)C(=O)O [Compound 71, N-((4-chloro-7-(2-((S)-1-(2-((3bS,4aR)-5,5-difluoro-3-(trifluoromethyl)-3b,4,4a,5-tetrahydro-1H-cyclopropa[3,4]cyclopenta[1,2-c]pyrazol-1-yl)acetamido)-2-(3,5-difluorophenyl)ethyl)-6-(3-methyl-3-(methylsulfonyl)but-1-yn-1-yl)pyridin-3-yl)-1-(2,2,2-trifluoroethyl)-1H-indazol-3-yl)(methylsulfonyl)carbamoyl)-N-methyl-L-aspartic acid]
3 | 1 μM | 9 μM | CC(C)(C#Cc1ccc(-c2ccc(Cl)c3c(N(C(=O)NCC(=O)O)S(C)(=O)=O)nn(CC(F)(F)F)c23)c([C@H](Cc2cc(F)cc(F)c2)NC(=O)Cn2nc(C(F)(F)F)c3c2C(F)(F)[C@@H]2C[C@H]32)n1)S(C)(=O)=O [Compound 72, ((4-chloro-7-(2-((S)-1-(2-((3bS,4aR)-5,5-difluoro-3-(trifluoromethyl)-3b,4,4a,5-tetrahydro-1H-cyclopropa[3,4]cyclopenta[1,2-c]pyrazol-1-yl)acetamido)-2-(3,5-difluorophenyl)ethyl)-6-(3-methyl-3-(methylsulfonyl)but-1-yn-1-yl)pyridin-3-yl)-1-(2,2,2-trifluoroethyl)-1H-indazol-3-yl)(methylsulfonyl)carbamoyl)glycine]
4 | 72 μM | 16 μM | CC(C)(C#Cc1ccc(-c2ccc(Cl)c3c(N(C(=O)NCCN4CCNCC4)S(C)(=O)=O)nn(CC(F)(F)F)c23)c([C@H](Cc2cc(F)cc(F)c2)NC(=O)Cn2nc(C(F)(F)F)c3c2C(F)(F)[C@@H]2C[C@H]32)n1)S(C)(=O)=O [Compound 73, N—((S)-1-(3-(4-chloro-3-(N-((2-(piperazin-1-yl)ethyl)carbamoyl)methylsulfonamido)-1-(2,2,2-trifluoroethyl)-1H-indazol-7-yl)-6-(3-methyl-3-(methylsulfonyl)but-1-yn-1-yl)pyridin-2-yl)-2-(3,5-difluorophenyl)ethyl)-2-((3bS,4aR)-5,5-difluoro-3-(trifluoromethyl)-3b,4,4a,5-tetrahydro-1H-cyclopropa[3,4]cyclopenta[1,2-c]pyrazol-1-yl)acetamide]
5 | 72 μM | 24 μM | CC(C)(C#Cc1ccc(-c2ccc(Cl)c3c(N(C(=O)NCCN4CCN(C(=N)N)CC4)S(C)(=O)=O)nn(CC(F)(F)F)c23)c([C@H](Cc2cc(F)cc(F)c2)NC(=O)Cn2nc(C(F)(F)F)c3c2C(F)(F)[C@@H]2C[C@H]32)n1)S(C)(=O)=O [Compound 74, N—((S)-1-(3-(3-(N-((2-(4-carbamimidoylpiperazin-1-yl)ethyl)carbamoyl)methylsulfonamido)-4-chloro-1-(2,2,2-trifluoroethyl)-1H-indazol-7-yl)-6-(3-methyl-3-(methylsulfonyl)but-1-yn-1-yl)pyridin-2-yl)-2-(3,5-difluorophenyl)ethyl)-2-((3bS,4aR)-5,5-difluoro-3-(trifluoromethyl)-3b,4,4a,5-tetrahydro-1H-cyclopropa[3,4]cyclopenta[1,2-c]pyrazol-1-yl)acetamide]
6 | 16 μM | 13 μM | CN(CCNC(=N)N)C(=O)N(c1nn(CC(F)(F)F)c2c(-c3ccc(C#CC(C)(C)S(C)(=O)=O)nc3[C@H](Cc3cc(F)cc(F)c3)NC(=O)Cn3nc(C(F)(F)F)c4c3C(F)(F)[C@@H]3C[C@H]43)ccc(Cl)c12)S(C)(=O)=O [Compound 75, N—((S)-1-(3-(4-chloro-3-(N-((2-guanidinoethyl)(methyl)carbamoyl)methylsulfonamido)-1-(2,2,2-trifluoroethyl)-1H-indazol-7-yl)-6-(3-methyl-3-(methylsulfonyl)but-1-yn-1-yl)pyridin-2-yl)-2-(3,5-difluorophenyl)ethyl)-2-((3bS,4aR)-5,5-difluoro-3-(trifluoromethyl)-3b,4,4a,5-tetrahydro-1H-cyclopropa[3,4]cyclopenta[1,2-c]pyrazol-1-yl)acetamide]
7 | 21 μM | 1 μM | CC(C)(C#Cc1ccc(-c2ccc(Cl)c3c(N(C(=O)NCCNC(=O)C(=O)O)S(C)(=O)=O)nn(CC(F)(F)F)c23)c([C@H](Cc2cc(F)cc(F)c2)NC(=O)Cn2nc(C(F)(F)F)c3c2C(F)(F)[C@@H]2C[C@H]32)n1)S(C)(=O)=O [Compound 77, 2-((2-(3-(4-chloro-7-(2-((S)-1-(2-((3bS,4aR)-5,5-difluoro-3-(trifluoromethyl)-3b,4,4a,5-tetrahydro-1H-cyclopropa[3,4]cyclopenta[1,2-c]pyrazol-1-yl)acetamido)-2-(3,5-difluorophenyl)ethyl)-6-(3-methyl-3-(methylsulfonyl)but-1-yn-1-yl)pyridin-3-yl)-1-(2,2,2-trifluoroethyl)-1H-indazol-3-yl)-3-(methylsulfonyl)ureido)ethyl)amino)-2-oxoacetic acid]
8 | 14 μM | 22 μM | CC(C)(C#Cc1ccc(-c2ccc(Cl)c3c(N(C(=O)N(CC(=O)O)CC(=O)O)S(C)(=O)=O)nn(CC(F)(F)F)c23)c([C@H](Cc2cc(F)cc(F)c2)NC(=O)Cn2nc(C(F)(F)F)c3c2C(F)(F)[C@@H]2C[C@H]32)n1)S(C)(=O)=O [Compound 78, 2,2′-(((4-chloro-7-(2-((S)-1-(2-((3bS,4aR)-5,5-difluoro-3-(trifluoromethyl)-3b,4,4a,5-tetrahydro-1H-cyclopropa[3,4]cyclopenta[1,2-c]pyrazol-1-yl)acetamido)-2-(3,5-difluorophenyl)ethyl)-6-(3-methyl-3-(methylsulfonyl)but-1-yn-1-yl)pyridin-3-yl)-1-(2,2,2-trifluoroethyl)-1H-indazol-3-yl)(methylsulfonyl)carbamoyl)azanediyl)diacetic acid]
